Entries after “also recorded” stand apart in the source; their conditions may differ.
Legend:
[1] = Serum protection assay; format: in vitro ADME; details: siCIP2A, 50:1, 50% human serum, 1 hour at 37° C.
Protocol: Afterwards, complexes were either treated or untreated with 50% human serum (final concentration; VWR, Radnor, PA) for 1 hour at 37° C., followed by denaturation with 4% SDS. Next, the samples were electrophoresed on a 4% agarose gel and resulting siCIP2A bands were imaged and quantified, as described above.

[2] = system: siCIP2A; assay: siRNA binding assay (gel-shift); details: 10:1 Peptide:siRNA molar ratio
From the text: Afterwards, the samples were electrophoresed on a 4% agarose gel and stained with ethidium bromide. Free siCIP2A was used as a normalizing control. An Ultra-Low Range DNA Ladder (Thermo Fisher Scientific, Waltham, MA) was used as a MW marker. Resulting siCIP2A bands were imaged and quantified using a G:Box Chemi XX6 and GeneSys image capture software (Syngene, Frederick, MD), respectively.

[3] = Physicochemical measurements (Zetasizer) of peptide-siCIP2A complexes; details: complex with siCIP2A at 50:1 Peptide:siRNA molar (12.5 N/P) ratio in water; for Particle Size: mean hydrodynamic size, dynamic light scattering, ± SD; for Particle Size / Zeta Potential: three experiments; for Zeta Potential: mean ± SD
[4] = system: CAL 27 cells; assay: Quantitative siRNA cell uptake assay; format: cell-based, human; details: DY547-siCIP2A, 2 hours post-treatment; for siRNA delivery into cells (internalization) compared to 599: 50:1 Peptide:siRNA molar (12.5 N/P) ratio
Protocol: CAL 27 cells, grown to a confluency of 60% on a 24-well plate, were rinsed three times with Opti-MEM I Reduced Serum Media (Opti-MEM; Thermo Fisher Scientific). […] After complexation, the total volume was brought to 600 μL with Opti-MEM, after which the cells were incubated with 500 μL of peptide-siCIP2A complexes for 2 hours at 37° C. with 5% CO2. As an additional control, the cells were also transfected with 50 pmol of DY547-siCIP2A using Lipofectamine® 3000 (Thermo Fisher Scientific), according to the manufacturer's instructions. After treatment, the cells were rinsed three times with PBS, before being trypsinized for 10 minutes at 37° C., followed by centrifugation for 5 minutes at 1,000×g at 4° C. The cells were then washed with ice cold phosphate-buffered saline (PBS) and centrifuged again for 5 minutes at 1,000×g at 4° C. Next, the cells were lysed in 250 μl ice cold 0.1 M NaOH. The cell lysates were centrifuged at 4° C. for 5 minutes at 10,000×g to remove cell debris. Afterwards, 100 μL of each sample was transferred to a black 96-well plate to measure fluorescence at 530/590 nm using a BioTek (Winooski, VT) Synergy HT plate reader. Fluorescence measurements were converted to the amount of internalized siRNAs using a standard curve that was generated per experiment using known concentrations of DY547-siCIP2A ranging from 0-100 fmol/μl. Subsequently, the amount of internalized siRNA was normalized to the amount of protein, which was quantitated using the Pierce BCA Protein Assay Kit (Thermo Fisher Scientific).

[5] = system: CIP2A mRNA; assay: CIP2A silencing in cells, real-time PCR; format: cell-based, human; details: CAL 27 cells, 50:1, 48 hours
Protocol: CAL 27 cells, grown to a confluency of 60% on 24-well plates, were rinsed three times with Opti-MEM. […] Afterwards, the complexes were added to the cells at a siRNA concentration of 125 nM and incubated for 4 hours at 37° C. with 5% CO2, prior to adjusting the siRNA and FBS concentrations to 100 nM and 10%, respectively, with the addition of 50% FBS/Opti-MEM media. 48 hours post-treatment, the total RNA or protein was harvested for subsequent real-time PCR and Western blot analyses.
Total RNA was harvested using the RNeasy Mini Kit (Qiagen, Germantown, MD). RNA was then reverse transcribed using the High-Capacity cDNA Reverse Transcription Kit (Thermo Fisher Scientific) in a Bio-Rad (Hercules, CA) T100 Thermal Cycler. Next, quantitative real-time PCR was performed in an Applied Biosystems™ StepOnePlus™ Real-Time PCR machine (Thermo Fisher Scientific) using the TaqMan™ Fast Advanced Master Mix (Thermo Fisher Scientific) and predesigned TaqMan™ Gene Expression Assays (Thermo Fisher Scientific) for CIP2A (Hs00405413_m1) and 18S (4319413E), according to the manufacturer's instructions.

[6] = system: siCIP2A; assay: siRNA release assay (heparin competition); details: 50:1 complexes; for siRNA release compared to 599: 0-10 μg heparin, 30 minutes at RT
Protocol: Afterwards complexes were incubated with either 0, 0.1, 0.5, 1.0, 2.0, 5.0 or 10 μg heparin (Millipore Sigma, St. Louis, MO) for 30 minutes at RT. The samples were then electrophoresed on a 4% agarose gel and resulting siCIP2A bands were imaged and quantified, as described above.

[7] = system: RNase A; assay: RNase protection assay; format: biochemical; details: siCIP2A, 50:1, 1 hour at 37° C.
RNase A, sequence (P61823 27-150): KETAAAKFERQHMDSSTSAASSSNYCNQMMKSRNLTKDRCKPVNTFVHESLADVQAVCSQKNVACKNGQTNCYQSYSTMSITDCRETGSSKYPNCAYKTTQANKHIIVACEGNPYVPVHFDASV
Protocol: Afterwards, complexes were either treated or untreated with 0.18 μg of RNase A (Thermo Fisher Scientific) for 1 hour at 37° C., followed by denaturation with 4% SDS. Next, the samples were electrophoresed on a 4% agarose gel and resulting siCIP2A bands were imaged and quantified, as described above.

[8] = system: CIP2A mRNA; assay: Dual peptide siRNA delivery system with GE11R9, CIP2A knockdown; format: cell-based, human; details: CAL 27 cells

Row | Substance | ability to protect siRNAs in the presence of serum, compared to 599 [1] | binding improvement relative to 599 [2] | PDI (Polydispersity index) [3] | Particle Size [3] | Zeta Potential [3] | siRNA delivery into cells compared to 599 ([4]; 30:1 Peptide:siRNA molar (7.5 N/P) ratio) | siRNA delivery into cells (internalization) compared to 599 [4] | gene silencing in comparison to 599 / among the peptide variants [5] | siRNA release compared to 599 [6] | ability to protect siRNAs in the presence of RNase A, compared to 599 [7] | complexed siRNAs (maximally) released ([6]; increasing heparin, maximal at 4-fold excess and higher (≥2 μg; ≥120 pmol) of heparin) | CIP2A knockdown with GE11R9 as compared to scrambled control peptide GE11SCR9 [8]
1 | GlfeaieGfienGweGmidGwyGGGGRRRRRRRRRK [INF7D] | greatest instability in serum | ~20% | 0.296 | 190.4 ± 94.6 nm | 28.2 ± 10.2 mV | dramatic and significant reduction in siRNA delivery into cells | significantly decreased levels of siRNA cell internalization; also recorded: adversely affect the intracellular delivery of siRNAs; also recorded: on average lower siRNA uptake abilities in comparison to 599; also recorded: poorest siRNA cell uptake | weakest gene silencing effect among the peptide variants | No statistical differences in siRNA release |  |  | 
2 | GlfeaieGfienGweGmidGwyGGGGrrrrrrrrrk [All-D] | did not differ from 599 |  | 0.366 | 185.9 ± 72.0 nm | 28.3 ± 7.7 mV |  | on average lower siRNA uptake abilities in comparison to 599 |  | poor siRNA release | did not differ from 599 | ~70% | 
3 | YHWYGYTPQNVIGGGGRRRRRRRRRK [GE11R9, EGFR-targeting derivative of GE11 peptide with a stretch of densely packed cationic amino acids] |  |  |  |  |  |  |  |  |  |  |  | shown to be specific
